Measured values published in the NIST ThermoML archive (doi:10.1021/acs.jced.8b00513).
Numbers after ± are expanded uncertainties.

Conditions: 101.33 kPa, Liquid, Vibrating tube method

O [water]
mass density (323.15 K): 988.035 ± 1 kg/m3 | mass density (328.15 K): 985.693 ± 1 kg/m3 | mass density (333.15 K): 983.196 ± 0.98 kg/m3 | mass density (338.15 K): 980.551 ± 0.98 kg/m3 | mass density (343.15 K): 977.765 ± 0.98 kg/m3
